We go through 21 compounds from US9085555B2, “Complement pathway modulators and uses thereof” (priority 2011, dated 2015).

This test addresses Factor D (Homo sapiens (Human), UniProt P00746). Description: biochemical. It counts as biochemical. To be noted: read-out: IC50.

Factor D, sequence (P00746 26-253): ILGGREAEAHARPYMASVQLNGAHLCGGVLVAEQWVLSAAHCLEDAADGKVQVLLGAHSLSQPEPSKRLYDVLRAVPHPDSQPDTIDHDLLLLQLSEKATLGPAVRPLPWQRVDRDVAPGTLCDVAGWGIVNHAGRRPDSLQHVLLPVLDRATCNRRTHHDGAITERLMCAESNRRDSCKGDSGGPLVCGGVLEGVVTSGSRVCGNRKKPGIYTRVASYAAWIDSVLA

The term IC50 denotes the concentration needed to halve the response being measured. Take `CO[C@H]1[C@@H](C(=O)Nc2cccc(Br)c2F)N(C(=O)Cn2nc(C(N)=O)c3ccccc32)C[C@@H]1F` [Example 755, 1-{2-[(2S,3S,4S)-2-(3-Bromo-2-fluoro-phenylcarbamoyl)-4-fluoro-3-methoxy-pyrrolidin-1-yl]-2-oxo-ethyl}-1H-indazole-3-carboxylic acid amide]: the IC50 was 17 nM. Next, `CO[C@H]1[C@@H](C(=O)Nc2cccc(Br)n2)N(C(=O)Cn2nc(C(C)=O)c3ccccc32)C[C@@H]1F` [Example 756, (2S,3S,4S)-1-[2-(3-Acetyl-indazole-1-yl)-acetyl]-4-fluoro-3-methoxy-pyrrolidine-2-carboxylic acid (6-bromo-pyridin-2-yl)-amide]: 7 nM; `CC(=O)c1nn(CC(=O)N2[C@@H]3C[C@@H]3C[C@H]2C(=O)Nc2cncc(Br)n2)c2ccccc12` [Example 757, (1R,3S,5R)-2-[2-(3-Acetyl-indazol-1-yl)-acetyl]-2-aza-bicyclo[3.1.0]hexane-3-carboxylic acid (6-bromo-pyrazin-2-yl)-amide]: 3 nM; `NC(=O)c1nn(CC(=O)N2[C@H](C(=O)Nc3cccc(OC(F)(F)F)c3F)C[C@@]3(CO)C[C@@H]23)c2ccccc12` [Example 758, 1-{2-[(1R,3S,5S)-3-(2-Fluoro-3-trifluoromethoxy-phenylcarbamoyl)-5-hydroxymethyl-2-aza-bicyclo[3.1.0]hex-2-yl]-2-oxo-ethyl}-1H-indazole-3-carboxylic acid amide]: 64 nM.

Regarding `NC(=O)c1nn(CC(=O)N2[C@H](C(=O)Nc3cccc(Br)c3F)C[C@@]3(CO)C[C@@H]23)c2ccccc12` [Example 759, 1-{2-[(1R,3S,5S)-3-(3-Bromo-2-fluoro-phenylcarbamoyl)-5-hydroxymethyl-2-aza-bicyclo[3.1.0]hex-2-yl]-2-oxo-ethyl}-1H-indazole-3-carboxylic acid amide], the 50% inhibitory concentration (IC50) is 9 nM. As for `NC(=O)c1nn(CC(=O)N2[C@H](C(=O)Nc3cccc(Br)n3)C[C@@]3(CO)C[C@@H]23)c2ccccc12` [Example 760, 1-{2-[(1R,3S,5S)-3-(6-Bromo-pyridin-2-ylcarbamoyl)-5-hydroxymethyl-2-aza-bicyclo[3.1.0]hex-2-yl]-2-oxo-ethyl}-1H-indazole-3-carboxylic acid amide], the figure is 12 nM; as for `NC(=O)n1cc(NC(=O)N2C[C@H]3C[C@H]3[C@H]2C(=O)Nc2cccc(Br)n2)c2ccccc21` [Example 763, (1R,2S,5S)-3-Aza-bicyclo[3.1.0]hexane-2,3-dicarboxylic acid 2-[(6-bromo-pyridin-2-yl)-amide]3-[(1-carbamoyl-1H-indol-3-yl)-amide]], 14 nM; as for `NC(=O)n1cc(NC(=O)N2C[C@H](F)C[C@H]2C(=O)Nc2cccc(Br)n2)c2ccccc21` [Example 764, (2S,4R)-4-Fluoro-pyrrolidine-1,2-dicarboxylic acid 2-[(6-bromo-pyridin-2-yl)-amide]1-[(1-carbamoyl-1H-indol-3-yl)-amide]], 4 nM. Next, `CCOC(=O)[C@H](CC1CCCCC1)NC(=O)[C@@H]1C[C@H]2C[C@H]2N1C(=O)Cn1nc(C(C)=O)c2cccnc21` [Example 765]: 211 nM. As for `COC(=O)[C@H](CC(C)C)NC(=O)[C@@H]1C[C@H]2C[C@H]2N1C(=O)Cn1nc(C(C)=O)c2cccnc21` [Example 766, (S)-2-({(1R,3S,5R)-2-[2-(3-Acetyl-pyrazolo[3,4-b]pyridin-1-yl)-acetyl]-2-aza-bicyclo[3.1.0]hexane-3-carbonyl}-amino)-4-methyl-pentanoic acid methyl ester], the figure is 216 nM; as for `COC(=O)C(CCC(F)(F)F)NC(=O)[C@@H]1C[C@H]2C[C@H]2N1C(=O)Cn1nc(C(C)=O)c2cccnc21` (stereo partly drawn) [Example 767, 2-({(1R,3S,5R)-2-[2-(3-Acetyl-pyrazolo[3,4-b]pyridin-1-yl)-acetyl]-2-aza-bicyclo[3.1.0]hexane-3-carbonyl}-amino)-5,5,5-trifluoro-pentanoic acid methyl ester], 346 nM. As to `CC(=O)c1nn(CC(=O)N2[C@@H]3C[C@@H]3C[C@H]2C(=O)Nc2nccc(C(F)(F)F)n2)c2ncccc12` [Example 769, (1R,3S,5R)-2-[2-(3-Acetyl-pyrazolo[3,4-b]pyridin-1-yl)-acetyl]-2-aza-bicyclo[3.1.0]hexane-3-carboxylic acid (4-trifluoromethyl-pyrimidin-2-yl)-amide], the 50% inhibitory concentration (IC50) stood at 378 nM. Next, `COCCOc1ccc2c(c1)c(C(C)=O)nn2CC(=O)N1[C@@H]2C[C@@H]2C[C@H]1C(=O)Nc1cccc(OC(F)(F)F)c1F` [Example 770, (1R,3S,5R)-2-{2-[3-Acetyl-5-(2-methoxy-ethoxy)-indazol-1-yl]-acetyl}-2-aza-bicyclo[3.1.0]hexane-3-carboxylic acid (2-fluoro-3-trifluoromethoxy-phenyl)-amide]: 9 nM.

`CC(=O)c1nn(CC(=O)N2[C@@H]3C[C@@H]3C[C@H]2C(=O)Nc2cccc(OC(F)(F)F)c2F)c2ccc(OC(C)C#N)cc12` (stereo partly drawn) [Example 771, (1R,3S,5R)-2-{2-[3-Acetyl-5-(cyano-methyl-methoxy)-indazol-1-yl]-acetyl}-2-aza-bicyclo[3.1.0]hexane-3-carboxylic acid (2-fluoro-3-trifluoromethoxy-phenyl)-amide]: the IC50 amounted to 8 nM. With `CC(=O)c1nn(CC(=O)N2[C@@H]3C[C@@H]3C[C@H]2C(=O)Nc2cccc(OC(F)(F)F)c2F)c2ccc(OCC3CCCO3)cc12` (stereo partly drawn) [Example 772, (1R,3S,5R)-2-{2-[3-Acetyl-5-(tetrahydro-furan-2-ylmethoxy)-indazol-1-yl]-acetyl}-2-aza-bicyclo[3.1.0]hexane-3-carboxylic acid (2-fluoro-3-trifluoromethoxy-phenyl)-amide], the IC50 stood at 7 nM. Next, `CC(=O)c1cn(CC(=O)N2C[C@H](F)[C@@H](F)[C@H]2C(=O)NCc2cccc(Cl)c2F)c2ccccc12` [Example 773, (2R,3S,4S)-1-[2-(3-Acetyl-indol-1-yl)-acetyl]-3,4-difluoro-pyrrolidine-2-carboxylic acid 3-chloro-2-fluoro-benzylamide]: 28 nM. As for “(1R,3S,5R)-2-[2-(3-Acetyl-6- amino-pyrrolo[2,3-b]pyridin-1- yl)-acetyl]-2-aza-bicyclo [3.1.0]hexane-3-carboxylic acid 3-chloro-2-fluoro- benzylamide [Example 676]”, the figure is 11 nM; as for “(1R,3S,5S)-5-Hydroxymethyl- 2-aza-bicyclo[3.1.0]hexane- 2,3-dicarboxylic acid 3-(3- chloro-2-fluoro-benzylamide) 2-[(1-methylcarbamoyl-1H- indol-3-yl)-amide] [Example 265]”, 83 nM; as for “(2S,4R)-4-Fluoro-pyrrolidine-1,2-dicarboxylic acid 1-[(3-carbamoyl-indolizin-1-yl)-amide]2-[(3-trifluoromethoxy-phenyl)-amide] [Example 122]”, 150 nM. Next, “(2S,4S)-4-Amino-pyrrolidine-1,2-dicarboxylic acid 1-[(1-carbamoyl-1H-indol-3-yl)-amide] 2-[(2-phenoxy-ethyl)-amide] [Example 91]”: 2950 nM; “(S)-1-[2-(3-Formyl-indol-1-yl)- acetyl]-pyrrolidine-2- carboxylic acid (3-trifluoro- methoxy-phenyl)-amide [Example 559]”: 15700 nM.
